Experimental data from patent US20180192601A1, “Composition and Process for Producing Plants Using Anthers of Jatropha Species” (Reliance Industries Limited, priority 2017, published 2018).

Assays:
Type in all cases: cell-based, Jatropha Curcas
[1] = test system: anthers of Jatropha; experiment: Callus induction (callus formation) from anthers on callus induction composition
Method: The flower bud of about 2.5 mm were selected for excision of anthers. The flower buds were blot dried with several layers of sterile filter papers to remove excess moisture.
The anthers were excised from unopened flower buds in the laminar air flow (sterile hood) under aseptic conditions.
About 10 to 12 anthers were inoculated into culture tubes comprising the composition of the present disclosure for callus induction. The inoculated culture tubes were incubated in dark at a temperature of about 25±1° C. for a period ranging from about 25 days to 30 days. The culture tubes were replenished with the composition every three weeks for high frequency induction of callus. […]

[2] = test system: embryogenic calli of Jatropha anthers; experiment: Plant regeneration from embryogenic calli of Jatropha anthers
Method: The calli of size ranging from about 0.5 cm to 1.0 cm (breadth) were divided into small pieces and inoculated in the culture tubes comprising the composition of the present disclosure for induction of somatic embryogenesis.
The culture tubes showing the developed somatic embryoids were transferred to composition of the present disclosure for somatic embryo maturation and incubated in light culture room for about 16 hours under photoperiod (provided by cool while fluorescent lamp) and under dark for about 8 hours at a temperature of about 25±1° C. This process is continued until somatic embryos get matured and small shoots are visible.
Regeneration of embryogenic calli or embryoids was stimulated and maintained on various combinations of MSB media. Regenerated shoots were transferred to rooting medium for root development.
Table 3 illustrates the effect of different concentration of IBA individually and in combination with BAP and Kinetin of different concentrations on plant regeneration from embryogenic calli of Jatropha anthers.

[3] = test system: matured embryoids or small plantlets of Jatropha; experiment: Embryo germination and rooting of seedling
Method: The matured embryoids with the photoperiod of 16 hrs light and 8 hrs dark or small plantlets were transferred to the composition of the present disclosure and incubated at temperature ranging from about 25° C. to 28° C. for period of about 25 days to 30 days, for germination, for proliferation of roots and further elongation of shoots.
Table 4 illustrates the effect of different concentrations of IBA individually and in combination of with various concentrations of phloroglucinol and GA3 on embryo germination and rooting of seedling. Among the tested concentrations, IBA-0.1 mg/l, phloroglucinol—0.5 mg/l; Gibberellic acid-0.5 mg/l observed to be effective in producing more number of roots (6 roots/shoot) in 80% of the cultures; employing the composition comprising 100 ml of MS macro elements (10× concentration), about 25 ml of MS micro elements (100× concentration) about 10 ml of MS vitamins (200× concentration); citric aicd—40 mg/l; PVP—250 mg/l; Ascorbic acid—55 mg/l; myo inositol—100 mg/L; sucrose 20 g/L. Phytagel 1.5 g/l.

## O=C(O)COc1ccc(Cl)cc1Cl [2,4-D, 2,4-dichloro phenoxy acetic acid]
[1]; 2,4-D 0.5 mg/L
  Callus formation (%): 2%
[1]; 2,4-D 1 mg/L
  Callus formation (%): 2%
[1]; 2,4-D 2 mg/L
  Callus formation (%): 10%
[1]; 2,4-D 3 mg/L
  Callus formation (%): 20%
[1]; 2,4-D 4 mg/L
  Callus formation (%): 35%
[1]; 2,4-D 5 mg/L
  Callus formation (%): 45%

## indole butyric acid [IBA]
[2]; IBA 0.1 mg/L
  % of cultures showed regeneration: 0.0%
  No of Plants/explant: 0 Plants/explant
[2]; IBA 0.2 mg/L
  % of cultures showed regeneration: 0.0%
  No of Plants/explant: 0 Plants/explant
[2]; IBA 1.0 mg/L
  % of cultures showed regeneration: 0.0%
  No of Plants/explant: 0 Plants/explant
[2]; IBA 2.0 mg/L
  % of cultures showed regeneration: 0.0%
  No of Plants/explant: 0 Plants/explant
[2]; IBA 5.0 mg/L
  % of cultures showed regeneration: 0.0%
  No of Plants/explant: 0 Plants/explant
[3]; IBA 0.1 mg/L
  % of Embryos Germinated: 0.0%
  No. of roots/shoot: 0 roots/shoot
[3]; IBA 0.2 mg/L
  % of Embryos Germinated: 0.0%
  No. of roots/shoot: 0 roots/shoot
[3]; IBA 1.0 mg/L
  % of Embryos Germinated: 0.0%
  No. of roots/shoot: 0 roots/shoot
[3]; IBA 2.0 mg/L
  % of Embryos Germinated: 0.0%
  No. of roots/shoot: 0 roots/shoot
[3]; IBA 5.0 mg/L
  % of Embryos Germinated: 0.0%
  No. of roots/shoot: 0 roots/shoot
